Reference: patent US20200038514A1, “FOLATE CONJUGATE FOR USE IN TARGETING TUMOR ASSOCIATED MACROPHAGES” (ENDOCYTE, INC., priority 2016, published 2020)

Key:
[1] = tested on: 4T1p tumor cells; experiment: XTT cell viability assay, 4T1p; type: cell-based, mouse; conditions: 2 hours exposure up to 100 nM, 96 hour chase
Description: The FRα− and FRα+ expressing cell lines utilized to evaluate Conjugate 5 activity in-vitro and/or ex-vivo studies were (1) 4T1p, a mouse breast cancer cell line that resembles triple negative breast cancer in humans, (2) 4T1-C12, 4T1p stably transfected with a mouse FRa, and (3) IGROV1, a human ovarian carcinoma cell line that expresses the human FRα. 4T1p and 4T1-C12 cells were grown respectively in a folate-replete or folate-free RPMI1640 medium (Gibco BRL) (FFRPMI) containing 10% heat-inactivated fetal calf serum (HIFCS) and antibiotics, and maintained under a 5% CO2 atmosphere using standard cell culture techniques. IGROV1 cells were grown in the same medium as 4T1-C12.
4T1p and 4T1-C12 tumor cells in 96-well plates (20,000 cells/well) were treated with 10-fold serial dilutions of Conjugate 5 (100 nM) in FFRPMI medium. After a 2 hour exposure, the drug-containing media were replaced and the cells were washed and allowed to incubate further for 96 hours. The cell viability was assessed by adding XTT (2,3-bis(2-methoxy-4-nitro-5-sulfo-phenyl)-2H-tetrazolium-5-carboxanilide) to the culture medium for 2 hours following the manufacturer's instructions. All results were expressed as % absorbance (minus background) relative to the untreated control cells.

[2] = tested on: KB tumor; experiment: In vivo activity against KB tumors in mice; conditions: 0.5 μmol/kg once a week for two weeks
Excerpt: Treatment with 0.5 μmol/kg of Conjugate 5, once a week for two weeks also produced maximal anti-tumor activity with 100% cures. Change in weight is shown in FIG. 2B for test mice dosed at 0.5 μmol/kg Conjugate 5 SIW for two weeks (▴) compared to untreated control (▪).

[3] = tested on: 4T1 TAMs; experiment: Activity against 4T1 TAMs in vivo (FACS of tumors); parameters: species or system rats
Excerpt: Female Foxn1^nu nude rats (Harlan, Inc., Indianapolis, Ind.) on a folate-deficient diet were subcutaneously implanted with 1×10^6 4 T1 tumor cells in the mammary region. When the tumors reached ˜1088 mm^3, the animals (n=3) were intravenously dosed with nothing (Control), 254 nmol/kg of Conjugate 5, 254 nmol/kg of Conjugate 5 plus 127 μmol/kg of EC0923, or 127 μmol/kg of EC0923. Four days later, the entire tumors were harvested, enzymatically digested, and subjected to FACS analysis. The tumor cell suspensions were stained for macrophage markers (CD163, CD11b), cell viability (propidium iodide), and late and early apoptosis (Annexin V).

[4] = tested on: ST502 TNBC PDX tumors; experiment: In vivo activity against triple negative breast tumors (FIG. 5); parameters: species or system mice
Description: (§1) Mice were maintained and tumor volumes were measures according to Method 3.
Primary human TNBC model ST502 (2-4 mm in diameter) or primary human TNBC model ST738 (2-4 mm in diameter) were inoculated subcutaneously at the right flank of each mouse. Mice were randomized into experimental groups of 7 mice each and test articles were injected through the lateral tail vein under sterile conditions in a volume of […] of phosphate-buffered saline (PBS).

[5] = tested on: 4T1-C12 tumor (FRα-positive); experiment: Single-agent activity in vivo, 4T1-C12 mammary tumors; parameters: species or system mice; conditions: 0.2 μmol/kg i.v., BIW×4 doses
Excerpt: Female Balb/c mice (4T1p, 4T1-C12) were purchased from Envigo (Indianapolis, Ind.) and used when they reached 6-8 weeks of age. The mice were fed a folate-deficient diet (TestDiet, St. Louis, Mo.) on the day of arrival.
Solid tumors in Balb/c mice were generated by subcutaneous implantation of cultured cells at 5×10^5 (4T1p) and 2×10^6 (4T1-C12) per animal in the mammary region.
Starting on day 0, mice with mammary 4T1p (˜78.3±12.1 mm^3) and 4T1-C12 (˜70.1±14.1 mm^3) were scheduled to receive Conjugate 5 at 200 nmol/kg, biweekly for two weeks. 4T1p tumor bearing mice received a total of 3 doses only and 4T1-C12 tumor bearing mice received a total of 4 doses as planned. Mice were weighed and measured for tumor size 3 times a week. The tumor volumes were calculated by the following formula: V=0.5×a×b^2, where a is the longest axis across the tumor, and b is the shorter axis perpendicular to a. The animals were euthanized when the tumor volume reached ˜1500 mm^3. Mice were also monitored closely for the evidence of toxicity such as respiratory distress, mobility, weight loss, diarrhea, hunched posture, and failure to eat. The last Conjugate 5 dose in the 4T1p tumor-bearing mice was skipped due to weight loss.

[6] = tested on: KB-CR2000 (platin resistant) tumor; experiment: In vivo activity against platinum resistant tumors; parameters: species or system mice; conditions: Conjugate 5 0.5 μmol/kg SIW two weeks; EC1456 2.0 μmol/kg BIW two weeks; n=4
Description: as §1
KB-CR2000 (platin resistant) tumor cells were inoculated subcutaneously at the right flank of each mouse. Mice were dosed through the lateral tail vein under sterile conditions in a volume of […] of phosphate-buffered saline (PBS).

[7] = tested on: intraperitoneal ID8-C115 tumor; experiment: Conjugate 5 plus anti-CTLA-4 combination study, survival; type: in vivo, mice; conditions: Conjugate 5 i.v. 0.1 μmol/kg BIW×6 doses; EC1456 i.v. 2 μmol/kg BIW×6 doses, from day 7; anti-CTLA-4 i.p. 250 μg/dose BIW×5 doses from day 11; untreated ~46 days; 5 animals
Description: To test the effect of Conjugate 5 alone and in combination with anti-CTLA-4 antibody, ID8-C115 tumor cells (5×10^6 cells per animal in 1% syngeneic mouse serum/folate-deficient RPMI1640 medium) were inoculated intraperitoneally 13 days post the date of arrival and start of the folate deficient diet. […] The anti-CTLA-4 antibody dosing solution was prepared by diluting the stock solution (BioXcell, Clone UC10-4F10-11) to 1.25 mg/mL in PBS, pH 7.4. Anti-CTLA-4 (250 μg/dose) was i.p. administered BIW for a total of 5 doses starting 11 days after the tumor implant. […] Mice were weighed 3 times/week and assessed for any clinical sign of swollen bellies indicative of ascites formation and for the evidence of toxicity such as respiratory distress, mobility, weight loss, diarrhea, hunched posture, and failure to eat. Once the animals developed ascites, they were monitored daily and euthanized when ascites became severe (rounded and walking on tip toes). Healthy animals from the same cohort of mice were used as controls for normal weight gain.

C=C1C[C@H]2C=Nc3cc(OCCCCCOc4cc(N)c(C(=O)N5CC(=C)C[C@H]5C5OCCN5C(=O)OCC(C)(C)SSCCC(=O)NCCNC(=O)CCOCCOCCOCCOCCNC(=O)CCN5C(=O)CC(SC[C@H](NC(=O)[C@H](CC(=O)O)NC(=O)[C@H](CC(=O)O)NC(=O)[C@H](CCCNC(=N)N)NC(=O)[C@H](CC(=O)O)NC(=O)CC[C@H](NC(=O)c6ccc(NCc7cnc8nc(N)[nH]c(=O)c8n7)cc6)C(=O)O)C(=O)O)C5=O)cc4OC)c(OC)cc3C(=O)N2C1 (stereo partly shown) [Conjugate 5]
activity against FRα-negative 4T1p tumor cell in-vitro [1]: completely inactive | cures [2]: 100% | anti-TAM activity in presence of 500-fold excess of EC0923 ([3]; 254 nmol/kg Conjugate 5 plus 127 μmol/kg EC0923, single i.v. dose): not blocked | effect against FR− cell populations including CD163-CD11b+ 4T1 TAMs and 4T1 tumor cells ([3]; 254 nmol/kg, single i.v. dose): no effect | effect on CD163+CD11b+ TAM population in 4T1 tumors ([3]; single i.v. administration, Conjugate 5 254 nmol/kg, EC0923 127 μmol/kg, tumors harvested four days later, n=3): significantly decrease | cure (number of mice) ([4]; 0.3 μmol/kg BIW for two weeks, n=7): 7 | TNBC PDX tumor size compared to untreated control ([4]; Conjugate 5 0.3 μmol/kg BIW two weeks, EC1456 2.0 μmol/kg BIW two weeks): decreased TNBC PDX tumor size | body weight [5]: significant weight loss | cure (number of mice) [6]: 4 | median survival time [7]: ~77 days post tumor implant
